Activity calls are given as the source filed them.
Assays:
Leucine aminopeptidase = molecular target: T1, Leucine aminopeptidase (Plasmodium falciparum 3D7, UniProt Q8IL11); experiment: P. falciparum M17LAP inhibitors, primary screen, biochemical, fluorogenic H-Leu-NHMec substrate, 1536-well (AID 1619); type: functional
T1 sequence (Q8IL11 whole entry): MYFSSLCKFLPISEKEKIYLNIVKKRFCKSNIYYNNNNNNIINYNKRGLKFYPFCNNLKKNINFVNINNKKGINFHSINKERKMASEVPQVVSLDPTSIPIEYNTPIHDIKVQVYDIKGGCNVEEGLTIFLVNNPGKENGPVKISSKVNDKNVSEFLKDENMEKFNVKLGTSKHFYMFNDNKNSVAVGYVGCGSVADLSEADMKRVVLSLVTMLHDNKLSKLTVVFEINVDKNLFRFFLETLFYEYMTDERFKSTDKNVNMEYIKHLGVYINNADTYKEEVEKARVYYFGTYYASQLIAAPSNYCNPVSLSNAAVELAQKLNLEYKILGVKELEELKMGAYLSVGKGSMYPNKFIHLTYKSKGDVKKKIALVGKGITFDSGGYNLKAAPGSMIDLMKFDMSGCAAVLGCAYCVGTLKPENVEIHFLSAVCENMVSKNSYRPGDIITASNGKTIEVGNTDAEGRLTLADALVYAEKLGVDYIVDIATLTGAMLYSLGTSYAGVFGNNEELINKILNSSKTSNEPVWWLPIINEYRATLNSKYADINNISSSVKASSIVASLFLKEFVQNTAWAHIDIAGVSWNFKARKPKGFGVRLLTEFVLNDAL

Aminopeptidase N = molecular target: T2, Aminopeptidase N (Plasmodium falciparum FcB1/Columbia, UniProt O96935); experiment: P. falciparum M1AAP inhibitors, biochemical, fluorogenic H-Leu-NHMec substrate, 1536-well (AID 1445); parameters: species or system Plasmodium falciparum 3D7, 3D7
T2 sequence (O96935 whole entry): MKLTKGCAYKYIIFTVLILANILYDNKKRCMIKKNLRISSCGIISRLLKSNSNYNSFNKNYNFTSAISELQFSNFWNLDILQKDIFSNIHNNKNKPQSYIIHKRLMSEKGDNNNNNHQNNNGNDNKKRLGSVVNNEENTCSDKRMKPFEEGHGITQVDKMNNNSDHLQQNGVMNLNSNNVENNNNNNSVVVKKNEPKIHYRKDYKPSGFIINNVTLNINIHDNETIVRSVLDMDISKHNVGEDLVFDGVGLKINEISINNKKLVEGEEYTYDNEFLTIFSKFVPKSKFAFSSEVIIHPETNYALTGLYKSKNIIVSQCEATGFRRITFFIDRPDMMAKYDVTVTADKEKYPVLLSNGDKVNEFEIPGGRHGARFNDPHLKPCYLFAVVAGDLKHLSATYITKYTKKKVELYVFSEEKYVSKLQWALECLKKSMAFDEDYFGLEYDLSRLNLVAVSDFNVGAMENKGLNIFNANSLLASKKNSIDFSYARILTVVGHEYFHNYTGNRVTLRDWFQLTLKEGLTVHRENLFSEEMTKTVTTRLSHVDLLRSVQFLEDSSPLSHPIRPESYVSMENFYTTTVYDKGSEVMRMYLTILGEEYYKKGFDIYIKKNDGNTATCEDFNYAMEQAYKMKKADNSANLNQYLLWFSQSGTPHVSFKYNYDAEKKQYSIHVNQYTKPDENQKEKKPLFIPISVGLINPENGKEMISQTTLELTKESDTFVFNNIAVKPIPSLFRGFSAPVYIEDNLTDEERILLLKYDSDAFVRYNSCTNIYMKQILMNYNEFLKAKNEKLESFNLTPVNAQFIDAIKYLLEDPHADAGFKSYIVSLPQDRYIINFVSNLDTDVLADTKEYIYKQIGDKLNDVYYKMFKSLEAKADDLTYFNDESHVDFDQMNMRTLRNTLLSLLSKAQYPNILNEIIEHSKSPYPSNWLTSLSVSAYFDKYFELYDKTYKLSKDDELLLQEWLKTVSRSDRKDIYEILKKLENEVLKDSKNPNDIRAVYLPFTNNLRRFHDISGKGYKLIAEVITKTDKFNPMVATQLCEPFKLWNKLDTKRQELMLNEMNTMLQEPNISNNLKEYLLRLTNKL

[1] = molecular target: Luciferin 4-monooxygenase (Photinus pyralis, UniProt P08659); experiment: Counter Screen for Luciferase-based Assay Positives. [Related pubchem assays: 620, 618, 411 ]
cells [2] = type: functional, cell-based
[3] = inhibitors of intracellular T. cruzi replication, confirmation, NIH3T3 host cells, beta-gal luminescence (AID 2044); type: functional, cell-based;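 further: intracellular parasites grown in NIH/3T3 mouse fibroblasts as host cells; luminescent beta-galactosidase reporter signal from transgenic T. cruzi replicating inside host cells; inhibitors lower the luminescence signal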
cells [4] = type: functional, cell-based; remark: listed apart in the source
HT-1080 = experiment: cytotoxicity in HT1080 fibrosarcoma cells, cell-based, fluorescence readout (AID 620); type: functional; settings: Homo sapiens
[5] = cytotoxicity toward NIH3T3 fibroblasts, dose response, counter-screen, cell-based, ATP luminescence, mouse fibroblasts (AID 2010); type: functional;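 further: cells exposed to compound for about 90 hours before reading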
Nonstructural protein 1 = Nonstructural protein 1 (Influenza A virus, UniProt Q194T2); type: functional, Influenza A virus (A/California/07/2009(H1N1))
[6] = Shn3 3'UTR reporter inhibitors, dose response, cell-based, Clone20 osteoblasts, firefly luciferase, cherry-picked (AID 624132); type: functional;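 further: firefly luciferase luminescence from reporter carrying the Shn3 3'UTR in osteoblasts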
[7] = HepG2 cell cytotoxicity, dose response, cytotoxicity control for Shn3 inhibitor project, CellTiter-Glo, cherry-picked (AID 624134); type: functional, cell-based
[8] = control 3'UTR Renilla luciferase suppression, dose response, counter-screen for Shn3 inhibitor project, cell-based, Clone20-Shn3RL, cherry-picked (AID 624133); type: functional
[9] = A Cell Based Secondary Assay To Explore Cytotoxicity of Compounds that Sensitize Mycobacterium Tuberculosis to Beta-Lactam Antibiotics.; type: functional
[10] = growth suppression of PTEN-null colon cells, dose response, cell-based, HCT116 PTEN knockout (AID 1047); type: functional;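 further: HCT116 colon tumor cells with PTEN knocked out; cells exposed to compound for 60 hours before readout; potency for loss of cell viability measured by luminescence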
[11] = growth suppression of beta-catenin-knockout colon cells, dose response, cell-based, HCT116, human colon tumor (AID 1045); type: functional;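 further: HCT116 colon tumor cells with beta catenin knocked out; cells exposed to compound for 60 hours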
Cytochrome P450 3A4 = Cytochrome P450 3A4 (Homo sapiens, UniProt P08684); settings: Potency;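 further: confirmatory qHTS run detecting inhibitors and substrates of CYP3A4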
[12] = M. tuberculosis H37Rv growth inhibitors, H37Rv strain (AID 1626); type: functional
[13] = molecular target: T3, Heat shock factor protein 1 (Mus musculus, UniProt P38532); experiment: HSF1 potentiators in luciferase reporter cells, confirmation, cell-based, NIH3T3, luminescence, dose retest (AID 435004); type: functional;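 further: stress induced by proteasome inhibitor MG132 added 30 min after compound; luciferase reporter driven by HSF1 response element in NIH3T3 cells; actives raise luminescence as potentiators of the MG132 stress response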
T3 sequence (P38532 whole entry): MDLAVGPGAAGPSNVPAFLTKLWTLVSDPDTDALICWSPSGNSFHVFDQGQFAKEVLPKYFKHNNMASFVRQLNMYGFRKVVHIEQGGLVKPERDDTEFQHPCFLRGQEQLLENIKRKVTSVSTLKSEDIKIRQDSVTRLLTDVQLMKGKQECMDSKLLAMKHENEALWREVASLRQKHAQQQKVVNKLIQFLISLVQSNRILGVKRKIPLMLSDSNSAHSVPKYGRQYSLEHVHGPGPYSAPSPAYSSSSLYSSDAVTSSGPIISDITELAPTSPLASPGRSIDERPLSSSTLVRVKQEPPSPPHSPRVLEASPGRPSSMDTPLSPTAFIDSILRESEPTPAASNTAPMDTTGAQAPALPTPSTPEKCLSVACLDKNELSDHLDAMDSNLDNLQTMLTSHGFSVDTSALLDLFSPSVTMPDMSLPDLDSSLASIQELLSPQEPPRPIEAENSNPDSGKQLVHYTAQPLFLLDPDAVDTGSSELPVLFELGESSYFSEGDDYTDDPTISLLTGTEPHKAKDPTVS

Vero = Vero cell cytotoxicity, cytotoxicity control for flavivirus capping enzyme inhibitors (AID 588742); type: functional; settings: Chlorocebus sabaeus
Genome polyprotein = Genome polyprotein (dengue virus type 2, UniProt P29990); experiment: Dengue-2 NS5 methyltransferase inhibitors, primary screen, biochemical, confirmation dose response (AID 588689); type: functional
Estrogen receptor = molecular target: T4, Estrogen receptor (Homo sapiens, UniProt P03372);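 further: potency for inhibiting coactivator peptide recruitment to the receptor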
T4 sequence (P03372 whole entry): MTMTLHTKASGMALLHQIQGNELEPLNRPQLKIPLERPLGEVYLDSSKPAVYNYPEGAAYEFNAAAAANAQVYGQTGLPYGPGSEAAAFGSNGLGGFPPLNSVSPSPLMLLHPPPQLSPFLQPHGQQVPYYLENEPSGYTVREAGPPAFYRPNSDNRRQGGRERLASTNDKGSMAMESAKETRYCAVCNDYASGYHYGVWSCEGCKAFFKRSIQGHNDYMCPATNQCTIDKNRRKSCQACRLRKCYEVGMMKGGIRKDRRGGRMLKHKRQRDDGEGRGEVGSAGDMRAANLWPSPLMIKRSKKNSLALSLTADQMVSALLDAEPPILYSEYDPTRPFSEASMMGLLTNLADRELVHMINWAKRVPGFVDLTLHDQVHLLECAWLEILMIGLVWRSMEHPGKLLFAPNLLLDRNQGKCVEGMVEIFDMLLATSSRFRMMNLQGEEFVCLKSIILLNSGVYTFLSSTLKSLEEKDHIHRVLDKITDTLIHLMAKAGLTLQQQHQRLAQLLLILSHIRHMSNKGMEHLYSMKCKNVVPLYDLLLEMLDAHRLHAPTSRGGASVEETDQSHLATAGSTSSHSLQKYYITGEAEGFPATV

[14] = test system: Streptococcus sp. 'group A'; experiment: growth inhibition of control SK(-) GAS strain, dose response, counter-screen for streptokinase expression inhibitor project, luminescence, kanamycin, BacTiterGlo, confirmation (AID 1900); type: functional, organism-based
Streptokinase A = molecular target: T5, Streptokinase A (Streptococcus pyogenes serotype M1, UniProt P10520); experiment: S. pyogenes streptokinase expression inhibitors, potency, dose response, plasminogen activation absorbance, OD405 (AID 1914); type: functional, Streptococcus pyogenes M1 GAS;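 further: secreted streptokinase activity via plasminogen activation per viability signal from cell pellet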
T5 sequence (P10520 whole entry): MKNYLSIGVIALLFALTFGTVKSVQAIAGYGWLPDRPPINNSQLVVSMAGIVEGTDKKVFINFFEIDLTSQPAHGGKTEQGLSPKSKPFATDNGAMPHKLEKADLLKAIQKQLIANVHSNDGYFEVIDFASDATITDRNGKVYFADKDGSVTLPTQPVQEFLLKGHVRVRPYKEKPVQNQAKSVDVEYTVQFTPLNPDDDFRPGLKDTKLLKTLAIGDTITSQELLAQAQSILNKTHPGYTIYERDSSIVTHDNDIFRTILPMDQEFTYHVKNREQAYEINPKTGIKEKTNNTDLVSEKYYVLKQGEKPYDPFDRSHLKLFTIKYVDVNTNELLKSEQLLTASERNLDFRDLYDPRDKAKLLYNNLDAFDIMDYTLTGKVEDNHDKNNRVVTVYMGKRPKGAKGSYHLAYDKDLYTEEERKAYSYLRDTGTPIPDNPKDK

[15] = Luminescence-based dose response cell-based high throughput screening assay for cytotoxic compounds using the IEC-6 intestinal epithelial cell line. [Related pubchem assays: 1858 (Summary AID.), 1825 (Counterscreen.), 1907 (Confirmation screen.)]; type: functional
Streptococcus = experiment: Group A Streptococcus viability loss, dose response, counter-screen for streptokinase expression inhibitor project, luminescence, BacTiterGlo (AID 1915); type: functional, organism-based;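 further: potency for reduction of bacterial viability or growth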
Trypsin = Trypsin (Sus scrofa, UniProt P00761); experiment: porcine trypsin inhibitors, dose response, selectivity assay for Rce1 protease inhibitor project, biochemical, quenched peptide fluorescence, cherry-pick (AID 488789)
Cytochrome P450 2C19 = Cytochrome P450 2C19 (Homo sapiens, UniProt P33261); experiment: Cytochrome panel assay with activity outcomes. Panel member name: p450-cyp2c19 Compounds with AC50 equal or less than 10 uM are considered active; type: functional; settings: read-out: AC50
Sequence of Cytochrome P450 2C19 (P33261 whole entry): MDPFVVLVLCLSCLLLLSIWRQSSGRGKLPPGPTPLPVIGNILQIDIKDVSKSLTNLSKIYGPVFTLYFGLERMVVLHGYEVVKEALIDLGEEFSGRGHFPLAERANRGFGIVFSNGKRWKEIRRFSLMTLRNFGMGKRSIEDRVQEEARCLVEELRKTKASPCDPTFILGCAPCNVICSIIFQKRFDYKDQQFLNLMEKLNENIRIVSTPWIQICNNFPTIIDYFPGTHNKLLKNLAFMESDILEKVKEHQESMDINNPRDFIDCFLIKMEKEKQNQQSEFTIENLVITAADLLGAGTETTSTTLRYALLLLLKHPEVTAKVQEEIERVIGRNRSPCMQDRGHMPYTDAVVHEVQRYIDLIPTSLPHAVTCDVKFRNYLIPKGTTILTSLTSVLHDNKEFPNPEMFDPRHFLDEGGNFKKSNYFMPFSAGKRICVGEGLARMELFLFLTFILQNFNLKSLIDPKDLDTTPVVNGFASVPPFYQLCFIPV

Sequence of Cytochrome P450 3A4 (P08684 whole entry): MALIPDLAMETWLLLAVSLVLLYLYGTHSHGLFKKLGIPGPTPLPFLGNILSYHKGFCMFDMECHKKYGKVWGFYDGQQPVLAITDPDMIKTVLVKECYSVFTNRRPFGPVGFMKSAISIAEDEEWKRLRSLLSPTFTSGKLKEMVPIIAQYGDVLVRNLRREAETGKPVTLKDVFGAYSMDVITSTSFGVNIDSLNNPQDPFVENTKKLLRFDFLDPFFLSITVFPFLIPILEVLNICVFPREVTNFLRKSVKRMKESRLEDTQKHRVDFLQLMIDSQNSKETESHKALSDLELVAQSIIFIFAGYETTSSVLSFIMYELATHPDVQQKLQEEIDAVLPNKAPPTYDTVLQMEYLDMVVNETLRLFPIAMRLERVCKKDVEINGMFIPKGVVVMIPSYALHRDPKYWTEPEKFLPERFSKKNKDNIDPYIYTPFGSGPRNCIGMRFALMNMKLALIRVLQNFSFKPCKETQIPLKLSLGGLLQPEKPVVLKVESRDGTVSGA
Sequence of Trypsin (P00761 whole entry): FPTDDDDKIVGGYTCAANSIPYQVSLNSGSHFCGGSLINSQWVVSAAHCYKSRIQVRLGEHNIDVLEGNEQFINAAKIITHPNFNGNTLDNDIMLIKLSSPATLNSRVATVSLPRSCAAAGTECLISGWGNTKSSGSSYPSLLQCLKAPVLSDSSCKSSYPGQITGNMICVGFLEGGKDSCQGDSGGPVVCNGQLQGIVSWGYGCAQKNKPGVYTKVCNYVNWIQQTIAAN
Sequence of Genome polyprotein (P29990 2492-3391 limits assumed): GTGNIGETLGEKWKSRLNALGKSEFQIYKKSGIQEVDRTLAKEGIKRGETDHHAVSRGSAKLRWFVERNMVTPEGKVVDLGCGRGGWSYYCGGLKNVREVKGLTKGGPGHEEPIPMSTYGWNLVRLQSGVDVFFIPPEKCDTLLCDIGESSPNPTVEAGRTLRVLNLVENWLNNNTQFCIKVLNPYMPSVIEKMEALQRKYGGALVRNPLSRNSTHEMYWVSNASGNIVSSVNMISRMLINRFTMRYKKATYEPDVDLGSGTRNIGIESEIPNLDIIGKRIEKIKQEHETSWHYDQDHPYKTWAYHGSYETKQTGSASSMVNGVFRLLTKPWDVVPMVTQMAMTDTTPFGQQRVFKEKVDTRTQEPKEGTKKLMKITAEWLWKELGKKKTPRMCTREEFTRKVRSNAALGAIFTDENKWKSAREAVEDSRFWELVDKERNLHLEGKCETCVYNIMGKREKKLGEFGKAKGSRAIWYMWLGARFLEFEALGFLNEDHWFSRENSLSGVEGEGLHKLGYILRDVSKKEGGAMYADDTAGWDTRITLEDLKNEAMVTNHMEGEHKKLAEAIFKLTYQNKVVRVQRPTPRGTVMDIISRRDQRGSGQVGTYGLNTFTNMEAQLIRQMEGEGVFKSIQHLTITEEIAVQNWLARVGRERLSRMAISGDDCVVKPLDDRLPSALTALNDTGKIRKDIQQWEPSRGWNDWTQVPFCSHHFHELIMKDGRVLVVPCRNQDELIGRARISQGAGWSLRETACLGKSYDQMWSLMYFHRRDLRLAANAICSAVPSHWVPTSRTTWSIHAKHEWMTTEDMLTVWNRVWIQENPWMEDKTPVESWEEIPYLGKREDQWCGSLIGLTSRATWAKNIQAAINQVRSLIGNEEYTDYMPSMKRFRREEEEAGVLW
Sequence of Nonstructural protein 1 (Q194T2 whole entry): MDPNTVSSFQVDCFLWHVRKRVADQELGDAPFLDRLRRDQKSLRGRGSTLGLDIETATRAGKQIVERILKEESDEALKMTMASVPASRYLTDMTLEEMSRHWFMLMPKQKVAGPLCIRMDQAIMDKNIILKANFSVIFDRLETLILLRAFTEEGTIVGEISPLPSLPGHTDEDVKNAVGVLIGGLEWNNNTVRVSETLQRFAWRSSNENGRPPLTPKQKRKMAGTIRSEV
Sequence of Luciferin 4-monooxygenase (P08659 whole entry): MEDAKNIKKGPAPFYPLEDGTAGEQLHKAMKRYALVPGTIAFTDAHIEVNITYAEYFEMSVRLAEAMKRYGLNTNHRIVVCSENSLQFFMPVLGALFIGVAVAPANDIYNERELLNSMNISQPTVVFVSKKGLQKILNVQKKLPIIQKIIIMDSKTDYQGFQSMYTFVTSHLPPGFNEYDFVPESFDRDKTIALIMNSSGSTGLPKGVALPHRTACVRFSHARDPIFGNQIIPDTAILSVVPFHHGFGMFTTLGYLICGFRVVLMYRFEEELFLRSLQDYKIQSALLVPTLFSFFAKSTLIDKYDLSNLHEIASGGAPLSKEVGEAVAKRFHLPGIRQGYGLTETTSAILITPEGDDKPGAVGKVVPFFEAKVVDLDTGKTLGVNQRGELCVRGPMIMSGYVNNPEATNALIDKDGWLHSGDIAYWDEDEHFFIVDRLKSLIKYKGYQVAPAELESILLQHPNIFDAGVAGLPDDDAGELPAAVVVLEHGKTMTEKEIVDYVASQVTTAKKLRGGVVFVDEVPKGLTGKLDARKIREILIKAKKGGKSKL

COc1ccc(NC(=O)CC(Cc2ccccc2)C(=O)O)cc1 (stereo unspecified)
IC50 (Leucine aminopeptidase): 18.7 µM (active)

COCCCn1c(=N)c(C(=O)NCC2CCCO2)cc2c(=O)n3cccc(C)c3nc21 (stereo unspecified)
IC50 (Aminopeptidase N): 78.4 µM (active)

C=CCNc1nc(-c2ccccn2)nnc1-c1ccccc1
EC50 [1]: < 0.2 µM (active) | EC50 (cells [2]): 7.13 µM (active) | EC50 [3]: 2.27 µM (active) | EC50 (cells [4]): > 350 µM (not active) | EC50 (HT-1080): > 50 µM (not active) | EC50 [5]: 5.1 µM (active) | IC50 (Nonstructural protein 1): 1.25 µM (active) | AC50 [6]: 3.17 µM (active) | AC50 [7]: 6.36 µM (active) | AC50 [8]: 3.97 µM (active)

COc1ccc(-c2c(C(F)(F)F)oc3cc(OCC(=O)Nc4ccccc4C(F)(F)F)ccc3c2=O)cc1OC
CC50 [9]: 10.9 µM (active) | EC50 [10]: 3.45 µM (active) | EC50 [11]: 3.72 µM (active)

C#CCCCCCCCCCCCc1ccco1
AC50 (Cytochrome P450 3A4): 39.8 µM (inconclusive)

Cc1ncc(CC(=O)n2cc(C(=O)c3cc(F)ccc3O)cn2)s1
IC50 (Leucine aminopeptidase): 71.1 µM (active)

CC(C)NC(=O)[C@H]1C[C@@H]1[C@H](NC(=O)OCc1ccccc1)c1ccccc1
AC50 (Cytochrome P450 3A4): 7.94 µM (inconclusive)

O=C(CCC(=O)Nc1ccc(Oc2ccccc2)cc1)NCCO
IC50 [12]: > 100 µM (active)

CCOc1cc([N+](=O)[O-])cc(/C=C2/NC(=O)N(Cc3ccccc3F)C2=O)c1O
IC50 (Aminopeptidase N): 55.6 µM (active) | EC50 [13]: > 260 µM (inactive) | CC50 (Vero): > 40 µM (active) | IC50 (Genome polyprotein): 58.8 µM (active)

C[C@@H]1CC=C[C@H]2[C@H]1C(=O)N(Cc1ccccc1)[C@H]2c1ccc(/C=C/c2ccccc2)cc1F
CC50 [9]: > 40 µM (active)

COc1cccc(OCc2nnc(SCC(=O)NCc3ccco3)n2CCc2ccccc2)c1
IC50 (Estrogen receptor): > 50 µM (not active)

CCOc1ccc2[nH]c3c(N4CCc5ccccc5C4)ncnc3c2c1
EC50 [14]: 10.4 µM (active) | EC50 (Streptokinase A): > 150 µM (not active) | IC50 [15]: 5.99 µM (active) | EC50 (Streptococcus): 19.9 µM (active) | AC50 (Trypsin): 6.04 µM (active)

COc1cccc(/C=N/NC(=O)NC23CC4CC(CC(C4)C2)C3)c1O
CC50 [9]: 23.3 µM (active)

Cc1nccc(-c2cccc(N/N=C(\C#N)C(=O)c3ccccc3)c2)n1
IC50 (Aminopeptidase N): 16 µM (active)

Oc1c(/C=N/c2ccc(Oc3ccccc3)cc2)cnn1-c1cccc(Cl)n1
IC50 [12]: > 100 µM (active) | AC50 (Cytochrome P450 2C19): 11.2 µM (inconclusive)

CCC/C(=N/Nc1ccc(Cl)cc1)c1cnnc(-c2ccccc2)n1
IC50 (Estrogen receptor): 3.85 µM (active)

COc1cc(O)c(C)c(O)c1 [2,6-DIHYDROXY-4-METHOXYTOLUENE]
AC50 (Cytochrome P450 3A4): 39.8 µM (inconclusive)
